In ChEMBL document CHEMBL2390840, “An analysis of the synthetic tryptamines AMT and 5-MeO-DALT: emerging 'Novel Psychoactive Drugs'” (Bioorg Med Chem Lett, 2013):

Experiments:
[1] = molecular target: Muscarinic acetylcholine receptor M1 (Homo sapiens, UniProt P11229); assay: Displacement of [3H]QNB from human recombinant muscarinic M1 receptor expressed in CHO cells after 1 to […] by scintillation counting analysis; type: cell-based
[2] = Displacement of [3H]Muscimol from GABAA receptor in rat brain after 1 to […] by scintillation counting analysis; type: tissue-based
[3] = Displacement of [3H]Baclofen from GABAB receptor in rat brain after 1 to […] by scintillation counting analysis; type: tissue-based
[4] = molecular target: T1, 5-hydroxytryptamine receptor 2B (Homo sapiens, UniProt P41595); assay: Agonist activity at human 5-HT2B receptor expressed in HEK293 cells assessed as increase in calcium mobilization by FLIPR assay; type: functional, cell-based
[5] = molecular target: Neuronal acetylcholine receptor; alpha4/beta2 (Homo sapiens, UniProt P17787+P43681); assay: Displacement of [3H]Epibatidine from alpha4beta2 nACh receptor in HEK293 cells after 1 to […] by scintillation counting analysis; type: cell-based
[6] = molecular target: 5-hydroxytryptamine receptor 1D (Homo sapiens, UniProt P28221); assay: Displacement of [3H][…] from human recombinant 5-HT1D receptor expressed in HEK293T cells after 1 to […] by scintillation counting analysis; type: cell-based, HEK-293T
[7] = molecular target: T2, 5-hydroxytryptamine receptor 2C (Homo sapiens, UniProt P28335); assay: Displacement of [3H]Mesulergine from human recombinant 5-HT2C receptor expressed in HEK293 cells coexpressing FLP-IN after 1 to […] by scintillation counting analysis; type: cell-based
T2 sequence (P28335 whole entry): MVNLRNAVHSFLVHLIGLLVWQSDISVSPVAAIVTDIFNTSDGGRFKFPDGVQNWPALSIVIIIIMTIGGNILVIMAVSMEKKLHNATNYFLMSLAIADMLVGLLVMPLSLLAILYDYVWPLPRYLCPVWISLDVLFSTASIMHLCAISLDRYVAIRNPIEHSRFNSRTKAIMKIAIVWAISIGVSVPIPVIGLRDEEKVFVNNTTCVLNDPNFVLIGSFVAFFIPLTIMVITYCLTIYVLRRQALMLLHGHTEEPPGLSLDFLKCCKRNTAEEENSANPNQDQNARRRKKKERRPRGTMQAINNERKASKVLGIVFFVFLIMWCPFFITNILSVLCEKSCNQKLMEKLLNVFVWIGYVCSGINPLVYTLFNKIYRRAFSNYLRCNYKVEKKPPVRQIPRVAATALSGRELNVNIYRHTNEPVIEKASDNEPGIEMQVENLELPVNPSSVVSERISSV

[8] = molecular target: T1, 5-hydroxytryptamine receptor 2B; assay: Agonist activity at human 5-HT2B receptor expressed in HEK293 cells assessed as increase in calcium mobilization by FLIPR assay relative to 5-HT; type: functional, cell-based
[9] = molecular target: Glutamate NMDA receptor; assay: Displacement of [3H]MK801 from NMDA receptor PCP binding site in rat brain after 1 to […] by scintillation counting analysis; type: tissue-based
[10] = molecular target: T3, Sodium-dependent serotonin transporter (Homo sapiens, UniProt P31645); assay: Displacement of [3H]Citalopram from human recombinant serotonin transporter expressed in HEK293 cells after 1 to […] by scintillation counting analysis; type: cell-based
[11] = molecular target: Histamine H4 receptor (Homo sapiens, UniProt Q9H3N8); assay: Displacement of [3H]Histamine from human recombinant histamine H4 receptor expressed in HEK293 cells after 1 to […] by scintillation counting analysis; type: cell-based
[12] = molecular target: T3, Sodium-dependent serotonin transporter; type: cell-based, HEK293
[13] = molecular target: 5-hydroxytryptamine receptor 7 (Homo sapiens, UniProt P34969); assay: Displacement of [3H]LSD from human recombinant 5-HT7 receptor expressed in HEK293 cells after 1 to […] by scintillation counting analysis; type: cell-based
[14] = molecular target: Cannabinoid receptor 2 (Homo sapiens, UniProt P34972); assay: Displacement of [3H]CP55940 from human recombinant CB2 receptor expressed in HEK293 cells coexpressing FLP-IN after 1 to […] by scintillation counting analysis; type: cell-based
[15] = molecular target: 5-hydroxytryptamine receptor 2A (Homo sapiens, UniProt P28223); assay: Agonist activity at human 5-HT2A receptor expressed in HEK293 cells assessed as increase in calcium mobilization by FLIPR assay relative to 5-HT; type: functional, cell-based
[16] = molecular target: Muscarinic acetylcholine receptor M5 (Homo sapiens, UniProt P08912); assay: Displacement of [3H]QNB from human recombinant muscarinic M5 receptor expressed in CHO cells after 1 to […] by scintillation counting analysis; type: cell-based
[17] = molecular target: Neuronal acetylcholine receptor; alpha3/beta2 (Homo sapiens, UniProt P17787+P32297); assay: Displacement of [3H]Epibatidine from human recombinant alpha3beta2 nACh receptor expressed in HEK293 cells after 1 to […] by scintillation counting analysis; type: cell-based
[18] = molecular target: Beta-1 adrenergic receptor (Homo sapiens, UniProt P08588); assay: Displacement of [125I]Iodopindolol from human recombinant adrenergic beta1 receptor expressed in CHO cells coexpressing FLP-IN after 1 to […] by scintillation counting analysis; type: cell-based
[19] = molecular target: Sodium-dependent dopamine transporter (Homo sapiens, UniProt Q01959); type: cell-based, HEK293
[20] = molecular target: Histamine H2 receptor (Homo sapiens, UniProt P25021); assay: Displacement of [3H]Tiotidine from human recombinant histamine H2 receptor expressed in HEK293 cells after 1 to […] by scintillation counting analysis; type: cell-based
[21] = molecular target: Neuronal acetylcholine receptor; alpha4/beta4 (Homo sapiens, UniProt P30926+P43681); assay: Displacement of [3H]Epibatidine from human recombinant alpha4beta4 nACh receptor expressed in HEK293 cells after 1 to […] by scintillation counting analysis; type: cell-based
[22] = molecular target: Nicotinic acetylcholine receptor alpha2/beta4 (Homo sapiens, UniProt P02708+P30926); assay: Displacement of [3H]Epibatidine from human recombinant alpha2beta4 nACh receptor expressed in HEK293 cells after 1 to […] by scintillation counting analysis; type: cell-based
[23] = molecular target: Neuronal acetylcholine receptor; alpha3/beta4 (Homo sapiens, UniProt P30926+P32297); assay: Displacement of [3H]Epibatidine from human recombinant alpha3beta4 nACh receptor expressed in HEK293 cells after 1 to […] by scintillation counting analysis; type: cell-based
[24] = molecular target: 5-hydroxytryptamine receptor 5A (Homo sapiens, UniProt P47898); assay: Displacement of [3H]LSD from human recombinant 5-HT5A receptor expressed in CHO cells coexpressing FLP-IN after 1 to […] by scintillation counting analysis; type: cell-based
[25] = molecular target: 5-hydroxytryptamine receptor 3A (Homo sapiens, UniProt P46098); assay: Displacement of [3H]LY278584 from human recombinant 5-HT3 receptor expressed in HEK293T cells after 1 to […] by scintillation counting analysis; type: cell-based, HEK-293T
[26] = molecular target: D(4) dopamine receptor (Homo sapiens, UniProt P21917); assay: Displacement of [3H]N-methylspiperone from human recombinant dopamine D4 receptor expressed in HEK293 cells after 1 to […] by scintillation counting analysis; type: cell-based

T1 sequence (P41595 whole entry): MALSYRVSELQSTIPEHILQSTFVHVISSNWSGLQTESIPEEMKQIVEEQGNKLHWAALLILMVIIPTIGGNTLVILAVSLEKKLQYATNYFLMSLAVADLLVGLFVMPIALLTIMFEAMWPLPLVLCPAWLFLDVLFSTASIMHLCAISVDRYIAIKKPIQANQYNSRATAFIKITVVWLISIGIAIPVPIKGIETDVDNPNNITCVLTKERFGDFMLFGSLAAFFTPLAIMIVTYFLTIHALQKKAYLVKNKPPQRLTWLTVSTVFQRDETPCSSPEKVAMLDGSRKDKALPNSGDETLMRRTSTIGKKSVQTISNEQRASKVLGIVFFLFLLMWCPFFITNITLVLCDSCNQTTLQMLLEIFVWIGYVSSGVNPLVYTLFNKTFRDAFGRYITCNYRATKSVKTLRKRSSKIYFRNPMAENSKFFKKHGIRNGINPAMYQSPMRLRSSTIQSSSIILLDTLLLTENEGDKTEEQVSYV
Sequence of Sodium-dependent dopamine transporter (Q01959 whole entry): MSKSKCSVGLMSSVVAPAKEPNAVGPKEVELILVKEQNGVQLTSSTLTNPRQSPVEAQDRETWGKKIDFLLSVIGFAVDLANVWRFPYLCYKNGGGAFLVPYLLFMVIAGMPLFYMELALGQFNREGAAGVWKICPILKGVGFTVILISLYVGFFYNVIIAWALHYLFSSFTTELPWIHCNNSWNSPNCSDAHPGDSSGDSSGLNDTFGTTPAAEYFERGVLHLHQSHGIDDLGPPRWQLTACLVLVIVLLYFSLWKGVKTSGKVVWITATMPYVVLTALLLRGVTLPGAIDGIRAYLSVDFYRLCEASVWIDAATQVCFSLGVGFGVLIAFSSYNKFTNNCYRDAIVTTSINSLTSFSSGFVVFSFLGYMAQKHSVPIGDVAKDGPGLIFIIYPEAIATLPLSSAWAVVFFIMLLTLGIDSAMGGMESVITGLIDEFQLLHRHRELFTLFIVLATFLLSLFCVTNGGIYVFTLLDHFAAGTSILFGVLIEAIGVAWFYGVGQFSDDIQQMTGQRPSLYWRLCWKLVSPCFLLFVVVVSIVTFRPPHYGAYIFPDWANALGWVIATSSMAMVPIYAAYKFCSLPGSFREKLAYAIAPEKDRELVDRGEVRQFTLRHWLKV
T3 sequence (P31645 whole entry): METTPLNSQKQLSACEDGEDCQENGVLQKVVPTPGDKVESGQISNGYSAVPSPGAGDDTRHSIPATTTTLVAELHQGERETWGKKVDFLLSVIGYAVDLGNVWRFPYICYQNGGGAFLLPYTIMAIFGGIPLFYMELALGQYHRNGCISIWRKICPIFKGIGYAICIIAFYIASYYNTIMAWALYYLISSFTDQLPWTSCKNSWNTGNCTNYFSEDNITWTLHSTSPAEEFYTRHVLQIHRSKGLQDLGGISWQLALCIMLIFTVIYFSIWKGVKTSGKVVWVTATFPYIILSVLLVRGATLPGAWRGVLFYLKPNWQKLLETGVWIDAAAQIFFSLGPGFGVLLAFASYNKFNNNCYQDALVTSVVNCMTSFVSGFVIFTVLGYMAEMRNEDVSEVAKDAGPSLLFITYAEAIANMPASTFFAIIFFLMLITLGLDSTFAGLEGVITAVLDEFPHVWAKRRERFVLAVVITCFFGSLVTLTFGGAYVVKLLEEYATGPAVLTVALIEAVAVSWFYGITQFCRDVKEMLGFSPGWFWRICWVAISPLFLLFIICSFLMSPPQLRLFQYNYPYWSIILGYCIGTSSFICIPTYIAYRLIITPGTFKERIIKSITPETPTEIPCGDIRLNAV
Sequence of Neuronal acetylcholine receptor; alpha3/beta4 (P30926 whole entry): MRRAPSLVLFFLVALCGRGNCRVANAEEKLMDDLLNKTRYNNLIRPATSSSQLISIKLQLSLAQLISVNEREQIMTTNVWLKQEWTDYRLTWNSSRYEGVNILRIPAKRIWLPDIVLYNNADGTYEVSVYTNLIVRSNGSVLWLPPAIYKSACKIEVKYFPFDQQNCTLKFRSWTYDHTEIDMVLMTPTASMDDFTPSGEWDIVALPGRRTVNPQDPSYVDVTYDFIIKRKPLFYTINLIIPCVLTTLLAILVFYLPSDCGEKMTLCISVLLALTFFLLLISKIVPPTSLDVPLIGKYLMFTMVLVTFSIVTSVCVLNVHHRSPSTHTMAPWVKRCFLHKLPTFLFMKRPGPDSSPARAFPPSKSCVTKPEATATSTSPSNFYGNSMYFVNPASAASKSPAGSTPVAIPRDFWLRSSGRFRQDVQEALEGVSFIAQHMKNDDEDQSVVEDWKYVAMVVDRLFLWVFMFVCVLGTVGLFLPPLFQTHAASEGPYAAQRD
Sequence of Neuronal acetylcholine receptor; alpha3/beta4 (P32297 whole entry): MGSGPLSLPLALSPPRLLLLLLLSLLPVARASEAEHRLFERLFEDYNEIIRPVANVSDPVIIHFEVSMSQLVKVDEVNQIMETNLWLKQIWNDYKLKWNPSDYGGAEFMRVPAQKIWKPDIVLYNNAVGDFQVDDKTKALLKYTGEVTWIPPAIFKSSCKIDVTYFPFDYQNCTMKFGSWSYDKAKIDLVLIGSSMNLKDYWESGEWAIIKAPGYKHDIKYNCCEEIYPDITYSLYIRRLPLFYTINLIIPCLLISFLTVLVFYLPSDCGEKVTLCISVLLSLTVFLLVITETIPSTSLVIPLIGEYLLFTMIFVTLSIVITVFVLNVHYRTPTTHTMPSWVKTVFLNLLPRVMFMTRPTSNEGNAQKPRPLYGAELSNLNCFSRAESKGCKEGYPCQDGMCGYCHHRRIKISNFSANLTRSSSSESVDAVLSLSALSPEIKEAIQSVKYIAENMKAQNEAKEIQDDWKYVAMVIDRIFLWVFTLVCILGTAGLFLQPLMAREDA
Sequence of Neuronal acetylcholine receptor; alpha4/beta4 (P30926 whole entry): as the sequence (P30926 whole entry) above
Sequence of Neuronal acetylcholine receptor; alpha4/beta4 (P43681 whole entry): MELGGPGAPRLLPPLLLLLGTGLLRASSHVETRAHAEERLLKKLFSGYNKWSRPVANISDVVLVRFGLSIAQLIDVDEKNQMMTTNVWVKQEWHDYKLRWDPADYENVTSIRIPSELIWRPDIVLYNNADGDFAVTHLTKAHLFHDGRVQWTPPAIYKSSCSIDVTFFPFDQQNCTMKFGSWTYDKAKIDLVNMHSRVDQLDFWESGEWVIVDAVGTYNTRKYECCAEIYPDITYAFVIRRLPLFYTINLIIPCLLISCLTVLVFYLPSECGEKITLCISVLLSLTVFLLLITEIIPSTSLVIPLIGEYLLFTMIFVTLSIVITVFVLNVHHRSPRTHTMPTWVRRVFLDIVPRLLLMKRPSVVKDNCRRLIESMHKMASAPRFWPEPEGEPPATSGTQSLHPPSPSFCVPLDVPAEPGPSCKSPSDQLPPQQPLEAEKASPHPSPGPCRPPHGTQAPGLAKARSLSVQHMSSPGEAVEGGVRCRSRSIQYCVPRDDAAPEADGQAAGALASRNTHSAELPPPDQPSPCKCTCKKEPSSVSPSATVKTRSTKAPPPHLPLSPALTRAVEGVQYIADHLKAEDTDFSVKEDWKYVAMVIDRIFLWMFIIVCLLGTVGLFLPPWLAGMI
Sequence of Histamine H4 receptor (Q9H3N8 whole entry): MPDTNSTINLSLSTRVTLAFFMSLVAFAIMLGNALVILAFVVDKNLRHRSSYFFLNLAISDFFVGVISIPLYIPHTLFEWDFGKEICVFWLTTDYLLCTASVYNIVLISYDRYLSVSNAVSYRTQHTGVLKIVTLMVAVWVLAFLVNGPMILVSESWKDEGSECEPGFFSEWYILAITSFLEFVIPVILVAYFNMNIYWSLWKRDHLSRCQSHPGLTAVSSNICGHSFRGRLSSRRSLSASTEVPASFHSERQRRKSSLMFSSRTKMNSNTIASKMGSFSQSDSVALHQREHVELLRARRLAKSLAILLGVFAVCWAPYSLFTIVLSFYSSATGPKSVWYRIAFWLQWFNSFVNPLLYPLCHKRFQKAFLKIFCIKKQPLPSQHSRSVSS
Sequence of Neuronal acetylcholine receptor; alpha3/beta2 (P17787 whole entry): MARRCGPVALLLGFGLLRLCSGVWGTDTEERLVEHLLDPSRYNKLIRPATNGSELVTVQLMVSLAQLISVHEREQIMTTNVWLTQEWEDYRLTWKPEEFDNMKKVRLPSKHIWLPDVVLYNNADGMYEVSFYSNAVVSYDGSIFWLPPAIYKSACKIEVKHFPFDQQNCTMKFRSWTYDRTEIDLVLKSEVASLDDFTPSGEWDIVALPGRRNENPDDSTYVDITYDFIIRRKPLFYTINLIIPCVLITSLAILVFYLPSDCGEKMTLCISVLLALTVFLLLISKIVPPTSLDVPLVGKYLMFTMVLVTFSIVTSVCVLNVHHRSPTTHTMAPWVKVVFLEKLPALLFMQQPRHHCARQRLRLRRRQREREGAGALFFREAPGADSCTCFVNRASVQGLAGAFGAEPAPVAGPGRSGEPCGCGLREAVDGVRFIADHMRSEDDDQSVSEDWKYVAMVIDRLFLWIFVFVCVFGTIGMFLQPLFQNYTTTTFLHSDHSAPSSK
Sequence of Neuronal acetylcholine receptor; alpha3/beta2 (P32297 whole entry): as the sequence (P32297 whole entry) above
Sequence of Neuronal acetylcholine receptor; alpha4/beta2 (P17787 whole entry): as the sequence (P17787 whole entry) above
Sequence of Neuronal acetylcholine receptor; alpha4/beta2 (P43681 whole entry): as the sequence (P43681 whole entry) above
Sequence of 5-hydroxytryptamine receptor 2A (P28223 whole entry): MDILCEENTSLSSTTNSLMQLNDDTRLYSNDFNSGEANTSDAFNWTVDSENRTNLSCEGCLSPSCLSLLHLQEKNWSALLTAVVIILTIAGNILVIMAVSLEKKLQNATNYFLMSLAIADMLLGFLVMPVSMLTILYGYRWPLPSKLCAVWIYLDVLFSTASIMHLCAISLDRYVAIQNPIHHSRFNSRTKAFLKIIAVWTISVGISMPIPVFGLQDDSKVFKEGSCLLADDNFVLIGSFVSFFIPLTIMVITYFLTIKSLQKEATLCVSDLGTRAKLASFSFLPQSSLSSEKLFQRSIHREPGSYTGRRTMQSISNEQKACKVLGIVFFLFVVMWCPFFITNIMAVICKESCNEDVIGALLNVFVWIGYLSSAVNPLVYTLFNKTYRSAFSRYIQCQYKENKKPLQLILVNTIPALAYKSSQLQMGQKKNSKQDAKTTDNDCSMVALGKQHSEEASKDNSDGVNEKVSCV

SMILES	Ki [1]	pKi [2]	pKi [3]	EC50 [4]	Ki [5]	Ki [6]	Ki [7]	Emax [8]	pKi [9]	Ki [10]	Ki [11]	IC50 [12]	Ki [12]	Ki [13]	Ki [14]	Emax [15]	Ki [16]	Ki [17]	IC50 [19]	Ki [19]	further results
CC(N)Cc1c[nH]c2ccccc12 (stereo unspecified)	> 10 µM	< 5	< 5	0.0758 µM	> 10 µM	1.79 µM	0.166 µM	84%	< 5	1.13 µM	> 10 µM	2.34 µM	0.812 µM	0.103 µM	> 10 µM	89%	> 10 µM	> 10 µM	1.86 µM	0.666 µM	Ki ([18]; read-out: Ki): 3.78 µM; Ki ([20]; read-out: pKi (converted)): > 10 µM; Ki [21]: > 10 µM; Ki [22]: > 10 µM; Ki [23]: > 10 µM; Ki [24]: > 10 µM; Ki [25]: > 10 µM; Ki [26]: > 10 µM
C=CCN(CC=C)CCc1c[nH]c2ccc(OC)cc12	> 10 µM	< 5	< 5	0.0055 µM	> 10 µM	0.149 µM	1.74 µM	95%	< 5	0.679 µM	> 10 µM	8.71 µM	2.47 µM	0.017 µM	> 10 µM	93%	> 10 µM	> 10 µM	32.4 µM	17 µM	Ki ([18]; read-out: pKi (converted)): > 10 µM; Ki ([20]; read-out: Ki): 4.25 µM; Ki [21]: > 10 µM; Ki [22]: > 10 µM; Ki [23]: > 10 µM; Ki [24]: > 10 µM; Ki [25]: > 10 µM; Ki [26]: > 10 µM
